# According to publication PMC9616412, “Nebulized fusion inhibitory peptide protects cynomolgus macaques from measles virus infection” (Nature Communications, 2022):
# What was measured:
# [1] = ELISA of HRC4-specific IgE in serum; format: in vivo, cynomolgus macaques; settings: up to 4 weeks after nebulization
# Experimental: Briefly, HRC4 was coated in carbonate buffer pH 9.2 overnight (1 μg /well). […] Rabbit anti-HRC4 Ab followed with anti-rabbit Ab coupled to HRP was used as a positive control. Evaluation of total IgE in the serum was performed using the monkey IgE kit (Ozyme) following the manufacturer’s recommendation.
# [2] = Lung histopathology (HE, HES; eosinophil infiltration); format: in vivo, cynomolgus macaques; settings: for Lung eosinophil infiltration: HES staining
# Experimental: Lung tissue samples were collected at necropsy and fixed by immersion in 10% neutral buffered formalin (Sigma) for a minimum of 14 days. The tissue samples were trimmed, processed and embedded in paraffin. 4 to 5 µm-thick sections were cut. For histopathology evaluation, slides were routinely stained with hematoxylin-eosin (HE) or with hematoxylin-eosin-saffron (HES). For the study of the pulmonary infiltration by eosinophils, the histopathologic evaluation was performed by a board-certified veterinary pathologist.
# For hematoxylin-eosin staining, formalin-fixed tissues were processed and embedded in paraffin and tissue sections were then deparaffinized, rehydrated, rinsed, and placed in PBS before harrys hematoxylin staining (Diapath, diluted 1/3), washed with PBS and stained with eosin 1% (Sigma-Aldrich). Slide were washed with water dehydrated and mounted with DPX mounting medium (Sigma-Aldrich). For the study of eosinophils infiltration, slides were stained in addition with saffron and analysed by a board-certified veterinary pathologist.
# MeV IC323-eGFP = experiment: Viremia: GFP+ PBMC by flow cytometry
# Experimental: Whole blood was collected on EDTA, then transferred into BD vacutainer CPT tubes (after removal of anticoagulant solution from CPT tubes) and spun at 2500 g for 20 min. The PBMCs were collected and one-tenth were used to isolate RNA. […] Cells were acquired on a MACSQuant®10 flow cytometer (Miltenyi) and analyzed by FlowJo10.8 (Becton Dickinson) and Kaluza 2.1 (Beckman Coulter).
# MeV = experiment: Plaque reduction assay on Vero-hSLAM cells; settings: fusion inhibition and plaque reduction in vitro before and after nebulization with mesh nebulizer
# [3] = Clinical observation for adverse effects after nebulization; settings: during the 28 days after peptide nebulization
# MeV IC323 = experiment: Lethal intranasal MeV infection of CD150xIFNα/βR KO mice, survival; settings: p < 0.0001, Mantel-Cox test
# Experimental: CD150xIFNα/βR KO mice[35],[36], generated by crossing hSLAM transgenic mice into an IFN Receptor α/β deficient background, were bred at the institute’s animal facility (PBES, ENS-Lyon, France) as heterozygotes for hSLAM transgenes. Three to 4 weeks old mice (males and females) were infected by intranasal route (i.n.) with 10 µl of MeV IC323 in both nares (10^4 PFU/mouse) under isoflurane anesthesia. CD150xIFNα/βR KO mice were given i.n. either 0.1 or 1 mg/kg of HRC4 peptide 24 h or 6 h before the infection. Control mice received the same number of administrations of the diluent. All animals were observed and weighed daily for four weeks and those showing clinical signs (neurological symptoms, ataxia, lethargy) were euthanized.
compound,measurement,setting,value
CC[C@H](C)[C@H](NC(=O)[C@H](C)NC(=O)[C@H](CC(N)=O)NC(=O)CNC(=O)[C@H](CC(C)C)NC(=O)[C@H](CC(N)=O)NC(=O)[C@@H](NC(=O)CNC(=O)[C@@H](NC(=O)[C@H](CC(=O)O)NC(=O)[C@H](CC(C)C)NC(=O)[C@H](CCCNC(=N)N)NC(=O)[C@H](CCC(=O)O)NC(=O)[C@H](CC(C)C)NC(=O)[C@H](CO)NC(=O)[C@@H](NC(=O)[C@@H]1CCCN1C(=O)[C@@H]1CCCN1)[C@@H](C)CC)C(C)C)[C@@H](C)O)C(=O)N[C@@H](C)C(=O)N[C@@H](CCCCN)C(=O)N[C@@H](CC(C)C)C(=O)N[C@@H](CCC(=O)O)C(=O)N[C@@H](CC(=O)O)C(=O)N[C@@H](C)C(=O)N[C@@H](CCCCN)C(=O)N[C@@H](CCC(=O)O)C(=O)N[C@@H](CC(C)C)C(=O)N[C@@H](CC(C)C)C(=O)N[C@@H](CCC(=O)O)C(=O)N[C@@H](CO)C(=O)N[C@@H](CO)C(=O)N[C@@H](CC(=O)O)C(=O)N[C@@H](CCC(N)=O)C(=O)N[C@H](C(=O)N[C@@H](CC(C)C)C(=O)N[C@@H](CCCNC(=N)N)C(=O)NCC(=O)N[C@@H](CO)C(=O)NCC(=O)N[C@@H](CO)C(=O)NCC(=O)N[C@@H](CSC1CC(=O)N(CCCC(=O)NCCOCCOCCOCCOCCC(=O)NCCN(CCNC(=O)CCOCCOCCOCCOCCNC(=O)CCCN2C(=O)CC(SC[C@H](NC(=O)CNC(=O)[C@H](CO)NC(=O)CNC(=O)[C@H](CO)NC(=O)CNC(=O)[C@H](CCCNC(=N)N)NC(=O)[C@H](CC(C)C)NC(=O)[C@@H](NC(=O)[C@H](CCC(N)=O)NC(=O)[C@H](CC(=O)O)NC(=O)[C@H](CO)NC(=O)[C@H](CO)NC(=O)[C@H](CCC(=O)O)NC(=O)[C@H](CC(C)C)NC(=O)[C@H](CC(C)C)NC(=O)[C@H](CCC(=O)O)NC(=O)[C@H](CCCCN)NC(=O)[C@H](C)NC(=O)[C@H](CC(=O)O)NC(=O)[C@H](CCC(=O)O)NC(=O)[C@H](CC(C)C)NC(=O)[C@H](CCCCN)NC(=O)[C@H](C)NC(=O)[C@@H](NC(=O)[C@H](C)NC(=O)[C@H](CC(N)=O)NC(=O)CNC(=O)[C@H](CC(C)C)NC(=O)[C@H](CC(N)=O)NC(=O)[C@@H](NC(=O)CNC(=O)[C@@H](NC(=O)[C@H](CC(=O)O)NC(=O)[C@H](CC(C)C)NC(=O)[C@H](CCCNC(=N)N)NC(=O)[C@H](CCC(=O)O)NC(=O)[C@H](CC(C)C)NC(=O)[C@H](CO)NC(=O)[C@@H](NC(=O)[C@@H]3CCCN3C(=O)[C@@H]3CCCN3)[C@@H](C)CC)C(C)C)[C@@H](C)O)[C@@H](C)CC)[C@@H](C)CC)C(=O)O)C2=O)CCO[C@H]2CC[C@@]3(C)C(=CC[C@H]4[C@@H]5CC[C@H]([C@H](C)CCCC(C)C)[C@@]5(C)CC[C@@H]43)C2)C1=O)C(=O)O)[C@@H](C)CC (stereo partly shown) [HRC4],HRC4-specific IgE in serum,[1],did not reveal presence of any HRC4-specific IgE
same,Lung eosinophil infiltration,[2]; HRC4-treated animals P1 and P3,no eosinophil infiltration was visible
same,Lung eosinophil infiltration,[2]; animals that developed MeV infection (incl. HRC4-treated P2),minimal although noticeable eosinophil infiltration
same,Histological analysis of lungs,[2]; lungs collected from nebulized animals,did not reveal any abnormalities
same,Duration of viremia,MeV IC323-eGFP; HRC4-treated animal P2 (co-housed with C3),6 days
same,Infection of PBMCs by flow cytometry,"MeV IC323-eGFP; HRC4-treated animal P2, day 9 p.i.",low level
same,Loss of inhibitory activity by nebulization,MeV,did not cause any loss of activity
same,"Adverse effects (pyrexia, allergic reaction)",[3],no adverse effects
same,Survival rate,MeV IC323; HRC4 1 mg/kg intranasal six hours before infection with 10^4 PFU,significantly higher survival rate
same,Survival rate,MeV IC323; HRC4 1 mg/kg intranasal twenty-four hours before infection with 10^4 PFU,significantly higher survival rate
